From US7632825B2, “Methods of decreasing or preventing pain using spicamycin derivatives” (Bayer Pharmaceuticals Corporation, priority 2000, dated 2009)

Tests used:
[1] = test system: primary afferent-evoked excitatory postsynaptic currents (EPSCs) from lamina II; assay: Electrophysiological recording of primary afferent-evoked EPSCs in lumbar spinal cord slices from spared-nerve injury animals; type: cell-based
Source text: Electrophysiological recordings were done on 650 μm thick transverse slices of lumbar spinal cord (from spared-nerve injury animals) with attached L4 dorsal root that were perfused with ice cold Krebs' solution ([in mM]: NaCl 117, KCl 3.6, CaCl2 2.5, MgCl2 1.2, NaH2PO4 1.2, NaHCO3 25 and glucose 11) saturated with 95% O2 and 5% CO2. To record primary afferent-evoked excitatory postsynaptic currents (EPSCs) from lamina II, whole cells were patch-clamped and then voltage-clamped at −70 mV. Orthodromicstimulation of L4 dorsal root was performed with a suction electrode attached to a constant current stimulator and graded intensity stimulation sufficient to recruit different afferent populations (Aβ, Aδ, and C-fibers) was used. Resistance of patch pipettes were 5-10 MW when filled with (in mM): Cs2SO4 110, CaCl2 0.5, MgCl2 2, EGTA 5, HEPES 5, TEA 5, ATP-Mg salt 5. Currents were amplified (Axopatch 200A), filtered at 2 kHz, digitized at 5 kHz and analyzed using pCLAMP 6 (Axon Instruments). SAN-Gly was dissolved in ice cold KREBs and bath-applied at two concentrations ([…]). […] In addition, as expected, the same concentration of SAN had no effect.

[2] = compared with KRN5500; cited from earlier work
Male Sprague-Dawley rats = assay: Mechanical allodynia (von Frey filaments) in rat segmental spinal nerve injury and chronic constriction nerve injury models, results combined; type: in vivo; details: single injection
Experimental: Male Sprague-Dawley rats (Charles River Laboratories) weighing 150-200 g were used to evaluate the analgesic properties of the SAN-Gly formulation. The animals were housed in groups of three in plastic cages with soft bedding and under a 12 hour light/dark cycle. Food and water were available ad libitum. After one week of acclimatization to the laboratory conditions, all animals were tested to establish a baseline mechanical allodynia.
Since different animal models of pain can provide different experimental results, SAN-Gly was tested using two rat models. All experiments were performed in a single-blinded fashion, i.e., the experimenter was not aware of which rats received the control saline and which rats received the SAN-Gly formulation.
One rat model used was based on an experimentally produced segmental spinal nerve injury (Kim et al., Pain 50:355-363, 1992). One week after the acclimatization to laboratory conditions, baseline measurements were recorded and surgery was performed as described in Kim et al., supra. Rats were anesthetized with halothane in oxygen and placed in a prone position. A midline skin incision at L4-S2 was made, and paraspinal muscles were separated from the spinous processes in the L4-S2 region. […]
The rats were allowed to recover from surgery for at least a week. […] Both groups were then monitored for allodynia at various time points after surgery. […]

[3] = 100 mM bath-applied, whole-cell patch clamp at -70 mV, observed in three out of five cells

NCC(=O)N[C@@H]1[C@@H](O)[C@@H](O)[C@@H](Nc2ncnc3[nH]cnc23)O[C@H]1[C@@H](O)CO [SAN-Gly, 4′-N-glycyl spicamycin amino nucleoside]
amplitude of EPSCs [1, 3]: reduced the amplitude | latency of EPSCs [1, 3]: increased the latency | effect on EPSCs upon washout of the drug ([1]; after 100 mM bath application): reversed upon washout | cytotoxicity relative to water-insoluble spicamycin derivatives such as KRN5500 [2]: less cytotoxic | recovery towards baseline pain behavior (Male Sprague-Dawley rats; 100 mg/kg body weight, single bolus in the tail vein, both animal models combined (FIG. 1)): 60% | persistence of increased pain tolerance (Male Sprague-Dawley rats; 100 mg/kg, tail vein, days after surgery as printed, both models combined): at least 7 days
